The test system of one assay is HCT-116. Put plainly: MTT assay. It counts as cell-based. The following applies: Homo sapiens; HCT-116, Colon, tumor; read-out: IC50 proliferation. The protocol: (§1) The MTT assay was performed as described. In brief, cells were seeded at 3000~5000 cells/well into 96-well plates (200 μL/well) and incubated overnight. We replaced the growth medium with fresh medium containing T521 at several concentrations (two-fold dilutions and the initial concentration is 50 μM, 10 reactions total). After further incubation for 48 hrs in the presence of T521, the medium was removed from all wells and the cells were incubated with 200 μL of fresh medium for additional 24 hrs. We then added 22 μL of MTT solution (Amresco; 5 mg/mL in PBS) to each well and incubated the plate for 4 hrs at 37°C. After removing the medium, we dissolved the purple MTT-formazan crystals by adding 150 μL of DMSO to each well and recorded absorbance at 560 nm by Envision Multilabel Reader (PerkinElmer). The inhibition curve was plotted to determine the IC50 of various cell lines using GraphPad Prism5.0.
(Tetrazolium dyes change colour on reduction, which living cells bring about.)

In another assay the test system is MG63. The assay is described as follows: MTT assay. It counts as cell-based. The following applies: Homo sapiens, MG-63; MG63, Bone, tumor; read-out: IC50 proliferation. The protocol: as §1
The subject of another assay is U-2OS. Put plainly: MTT assay. It counts as cell-based. Particulars: Homo sapiens, U2OS, Bone, tumor, read-out: IC50 proliferation. As to the method: as §1
A further assay deals with SaOS-2. Put plainly: MTT assay. The class given is cell-based. Particulars: Homo sapiens; SaOS-2, Bone, tumor; read-out: IC50 proliferation. As to the method:
as §1

The next assay deals with MRC-5. Put plainly: MTT assay. It counts as cell-based. The following applies: Homo sapiens, MRC5; MRC-5, Lung, normal; read-out: IC50 proliferation. The protocol:
as §1

Another assay deals with Bel7402. The assay is described as follows: MTT assay. Particulars: Homo sapiens, Bel-7402; Bel7402, Liver, tumor; read-out: IC50 proliferation. It counts as cell-based. As to the method:
as §1

A further assay has as its system HepG2. The assay is described as follows: MTT assay. It counts as cell-based. Particulars: Homo sapiens; HepG2, Liver, tumor; read-out: IC50 proliferation. The protocol: as §1
The test system of a further assay is SH-SY5Y. The assay is described as follows: MTT assay. It counts as cell-based. Particulars: Homo sapiens, Brain, tumor, read-out: IC50 proliferation. As to the method: as §1
The subject of another assay is MCF-7. Put plainly: MTT assay. It counts as cell-based. Particulars: Homo sapiens, MCF7; MCF-7, Breast, tumor; read-out: IC50 proliferation. As to the method: as §1
The subject of a further assay is HeLa. The assay is described as follows: MTT assay. The class given is cell-based. Particulars: Homo sapiens, Cervix, tumor, read-out: IC50 proliferation. The protocol: as §1
A further assay deals with HEK-293. Put plainly: MTT assay. The class given is cell-based. The following applies: Homo sapiens, HEK293; HEK-293, Kidney, normal; read-out: IC50 proliferation. The protocol:
as §1

For a further assay, the system named is A549. Put plainly: MTT assay. The class given is cell-based. The following applies: Homo sapiens; A549, Lung, tumor; read-out: IC50 proliferation. The protocol:
as §1

A further assay concerns PC3. Put plainly: MTT assay. The class given is cell-based. The following applies: Homo sapiens, PC-3; PC3, Prostate, tumor; read-out: IC50 proliferation. The protocol:
as §1

A further assay relates to HT29. The assay is described as follows: MTT assay. The class given is cell-based. Particulars: Homo sapiens, HT-29; HT29, Colon, tumor; read-out: IC50 proliferation. As to the method:
as §1

The subject of the next assay is L02. The assay is described as follows: MTT assay. The class given is cell-based. The following applies: Homo sapiens; L02, Liver, normal; read-out: IC50 proliferation. The protocol: as §1
The target in another assay is T1, Plk1 PBD (Homo sapiens, UniProt P53350).
T1 construct: (326-603 aa), Plk2 (355-685 aa), and Plk3 (335-646 aa); 6xHis (N); 6xHis (C); made in house; host or cells: E. coli Rosetta BL21(DE3)
Put plainly: Fluorescence polarization assay, Plk1 PBD / FITC-Poloboxtide. It counts as binding. As to the method:
FP assay was performed as follow. […] We calculated the percentage of inhibition for each sample as follows: Inhibition(%)=Negative−Sample/Negative−Positive×100%
We plotted the inhibition values and determined IC50 using GraphPad Prism5.0. Together with the FITC-labeled peptides used for Plk1 PBD as mentioned above, the following peptides were used for specificity assays, FITC-GPMQTSpTPKNG-OH (Plk2 PBD), FITC-GPLATSpTPKNG-OH (Plk3 PBD).

T1 sequence (P53350 326-603): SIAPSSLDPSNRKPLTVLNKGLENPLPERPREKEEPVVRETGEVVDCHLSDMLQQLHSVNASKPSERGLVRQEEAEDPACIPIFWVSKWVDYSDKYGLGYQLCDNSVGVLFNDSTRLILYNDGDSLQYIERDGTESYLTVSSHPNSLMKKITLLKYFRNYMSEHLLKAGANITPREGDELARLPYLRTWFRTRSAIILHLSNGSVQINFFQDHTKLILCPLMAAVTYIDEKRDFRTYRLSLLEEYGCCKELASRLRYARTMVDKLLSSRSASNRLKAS

On to `CCS(=O)(=O)c1oc(-c2ccc(F)cc2)nc1S(=O)(=O)c1ccccc1` [T521, 5-(ethylsulfonyl)-2-(4-fluorophenyl)-4-(phenylsulfonyl) oxazole], for which the IC50 is 3.55 µM in the assay with HCT-116; 6.25 µM in the assay with MG63; 1.06 µM with U-2OS; 1.56 µM with SaOS-2; 2.64 µM in the assay with MRC-5; 5.13 µM with Bel7402. Further, the IC50 in the assay with HepG2 came to 3.17 µM; with SH-SY5Y it was 1.37 µM; in the assay with MCF-7, 1.58 µM; in the assay on HeLa, 4.43 µM; in the assay with HEK-293, 8.66 µM; in the assay on A549 it was 3.56 µM. The IC50 was determined as 1.09 µM in the assay on PC3; 3.86 µM in the assay with HT29; 7.11 µM with L02; 1.22 ± 0.13 µM on Plk1 PBD (Plk1 PBD, FP assay, 1 hr preincubation at RT, read-out: Apparent IC50). The “temperature dependence of inhibition of Plk1 PBD / FITC-Poloboxtide interaction” value at Plk1 PBD (1 hr incubation at indicated temperatures) was “more efficient at higher temperatures”. The “time dependence of inhibition of Plk1 PBD / FITC-Poloboxtide interaction” value at Plk1 PBD (incubation for indicated times at RT) is reported as “inhibition increased over time”.
